Consider nine compounds from publication PMC10915964, “Identifying ligands for the PHD1 finger of KDM5A through high-throughput screening†” (RSC Chemical Biology, 2023).

This assay deals with T1, GST-PHD1 (PHD1 finger of KDM5A) (Homo sapiens, UniProt P29375).
T1 construct: GST-PHD1(S287-E344); made in house; host or cells: E. coli BL21 (DE3), pET41a
T1 sequence (P29375 287-344): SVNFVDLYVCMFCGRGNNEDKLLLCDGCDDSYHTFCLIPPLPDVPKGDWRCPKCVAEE
In words: Competitive-binding fluorescence polarization (FP) assay, displacement of 5-FAM H3K4me0 10-mer from GST-PHD1. The note with it: for inhibition at 1000 µM: read-out: %I at 1 mM. The text has this: Fluorescence polarization (FP) has been widely used as a biophysical method to detect and quantify disruptions in protein–protein and protein–peptide interactions.[33,34] It served as the primary assay in the high-throughput screening (HTS) campaign to identify ligands for the PHD1 finger (Fig. 1b). The FP assay includes a GST-labeled […] construct and its H3K4me0 10-mer peptide substrate (Fig. 1c and d).[21,22] […]
Fig. 2 Dose-dependent inhibition of GST-PHD1 − H3 tail interaction by screen hits obtained from HTS of the NCI collection. […] DMSO is used as the negative (−) control (0% inhibition).
Fluorescence polarization high-throughput screening
To test the activity of purified GST-PHD1(S287-E344), direct-binding and competitive-binding fluorescence polarization (FP) were done, as previously described.3,4 For screening, GST-PHD1(S287-E344) was diluted in buffer (50 mM HEPES, pH 7.5, 50 mM KCl, 0.01% Tween-20, 1 mM TCEP) with 20 nM 5-carboxyfluorescein-labeled H3 10-mer peptide and with or without 0.1% bovine gamma globulin (BGG). This was treated as the assay buffer (with 0.1% BGG) and also as the negative control. For the positive control, 120 μM unlabeled H3K4 10-mer peptide was added to the assay buffer. The assay buffer was dispensed using the EL406 Biotek liquid dispenser onto black, round-bottom low volumes 384-microwell plates (Corning 4514) to a final volume of 10 μL per well. DMSO (10 nL or 50 nL) or screening compounds at 10 nL (ChemBridge Premium Diversity collection at 10 μM final) or 50 nL (ML fragments and NCI libraries at 50 μM final) was added to plates containing the assay buffer using the BioMek liquid handler/dispenser. The final DMSO in the samples was either 0.1% or 0.5%. Fluorescence polarization measurements were performed directly and after 45 minutes of incubation at room temperature using a Perkin Elmer Envision and XCite 2105 multimode microplate reader equipped with a stacker. Excitation light was delivered with a xenon flash lamp at 480/30 nm (BW) and emission was collected after passing through an emission filter (535/25 nm). For fluorescence polarization experiments, two 535/40 nm filters (S, P) and dual dichroic D505/D535 nm mirrors were used.
For FP-based assay optimization, the assay signal dynamic range was evaluated using the negative and positive control buffers with varying amounts of GST-PHD1 (0.5, 1, 1.5, or 2 μM) in the presence or absence of 0.1% BGG. For each condition, buffer was dispensed into 3 columns of a 384-well plate (48 wells each) using the BioMek liquid dispenser and the FP signal was recorded. The Z′ value reports on the assay robustness by reflecting both the dynamic range and the data variation associated with assay measurements.5 The Z′ value is given by the following equation: […]
where σ represents the standard deviation, PC represents the positive control, NC represents the negative control, and μ represents the mean value of the FP signal.
Screen results were analyzed using the UCSF SMDC web application called HiTS […]
(http://smdc.ucsf.edu/hits/). […]
equal to 3 standard deviations of the mean percent inhibition values, where the negative control is set to 0% inhibition and the positive control is set to 100% inhibition. Cheminformatics analysis on the screen hits was done using DataWarrior, an open-source program for data visualization and analysis with chemical intelligence.6 The Tanimoto coefficient was used to gauge the similarity and diversity of screen hits and cluster any compounds with greater than 75% similarity.
Screen hits were repurchased when available. Structurally similar derivatives were purchased when exact compounds were not available for purchase. Compound purity was confirmed by LCMS. All compounds were dissolved in DMSO-d6 to a final concentration of 40 mM unless otherwise specified. All putative screen hits were confirmed in dose-response using the competitive binding fluorescence polarization […]
assay. […]
For orientation: In fluorescence polarisation assays a small probe gives low polarisation when free and higher when bound to something large.

The mark [1] stands for this setting: 1 mM compound, quadruplicate (n = 1 for R1 = OBn; n = 2 for R1 = Me).

Take `Cc1oc2ccc(NS(=O)(=O)c3ccccc3)cc2c1C(=O)OCc1ccccc1` [Compound 8018-7366]: the inhibition at 1000 µM under setting [1] turned out to be 6%. Besides, the “potency relative to parent hit” value (FP concentration-response, compared with 516 969 or 990 099) was “drastically reduced potency”.
Usually Ki stands for a dissociation constant, usually derived from enzyme kinetics or from competition with a known ligand. Consider `C[C@H](N)C(=O)N[C@@H](CCCNC(=N)N)C(=O)N[C@H](C(=O)N[C@@H](CCCCN)C(=O)N[C@@H](CCC(N)=O)C(=O)N[C@H](C(=O)N[C@@H](C)C(=O)N[C@@H](CCCNC(=N)N)C(=O)N[C@@H](CCCCN)C(=O)N[C@@H](CO)C(=O)O)[C@@H](C)O)[C@@H](C)O` [unlabeled H3 peptide, reference compound], for which the Ki (displacement of 5-FAM H3 10-mer (10 nM) from GST-PHD1 (2 μM)) came out at 950 ± 140 nM.
On to `CC(=O)c1c(C)oc2ccc(NS(=O)(=O)c3cccc(C(N)=O)c3)cc12` [Compound B4, 3-(N-(3-acetyl-2-methylbenzofuran-5-yl)sulfamoyl)benzamide], for which the inhibition at 1000 µM under setting [1] was 9%.
Same read-out and setting: to `COC(=O)c1cccc(S(=O)(=O)Nc2ccc3oc(C)c(C(C)=O)c3c2)c1` [Compound B6, methyl 3-(N-(3-acetyl-2-methylbenzofuran-5-yl)sulfamoyl)benzoate] belongs 4%; to `CCOC(=O)c1ccc(S(=O)(=O)Nc2ccc3oc(C)c(C(C)=O)c3c2)cc1` [Compound B5, ethyl 4-(N-(3-acetyl-2-methylbenzofuran-5-yl)sulfamoyl)benzoate], 11%.
On to `CC(=O)c1c(C)oc2ccc(NS(=O)(=O)c3cccc(Cl)c3)cc12` [Compound B7, N-(3-acetyl-2-methylbenzofuran-5-yl)-3-chlorobenzenesulfonamide], for which, under setting [1], the inhibition at 1000 µM is 13%.
The same measure, in the same setting: to `CC(=O)c1c(C)oc2ccc(NS(=O)(=O)c3ccc(C(N)=O)cc3)cc12` [Compound B3, 4-(N-(3-acetyl-2-methylbenzofuran-5-yl)sulfamoyl)benzamide] belongs 12%.
Same read-out and setting: to `CC(=O)c1c(C)oc2ccc(N(C(C)=O)S(=O)(=O)c3ccc(C(=O)O)cc3)cc12` [7 917 645] belongs 30%.
Regarding `CC(=O)c1c(C)oc2ccc(NS(=O)(=O)c3ccc(C(=O)O)cc3)cc12` [Compound B1, 4-(N-(3-acetyl-2-methylbenzofuran-5-yl)sulfamoyl)benzoic acid], under setting [1], the “%I at 1 mM” value was 38% and the inhibition at 1000 µM was 38%.
